System: oseltamivir-resistant influenza A/Hong Kong/2369/2009 (H1N1pdm) H275Y
Set-up: species or system BALB/c mice
Conditions: mouse, in vivo

## CCOC(=O)C1=C[C@@H](OC(CC)CC)[C@H](NC(C)=O)[C@@H](N)C1 [oseltamivir]
  protection from weight loss (mean body weights): did not protect mice from weight loss

From patent publication US20250320279A1, “UNGULATE-DERIVED POLYCLONAL IMMUNOGLOBULIN SPECIFIC FOR INFLUENZA VIRUS AND USES THEREOF” (priority 2021, published 2025)
